Results reported in PubChem BioAssay AID2060602 (Molecular Pharmacology Branch, DTP, NCI, 2025).
Where “and” joins values, the source holds several entries; their conditions need not be identical. Equal entries are not always repeated.

System: 648629-189-R-J1-PDC complex spheroids viability
Assay: Anticancer human tumor 648629-189-R-J1-PDC patient-derived bladder carcinoma cell line growth inhibition [CLK]
Details: for viability, T/C: stronger effect = lower value
In short: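 Patient-derived tumor cells grown as complex spheroids with HUVEC endothelial cells and mesenchymal stem cells, treated with drug combinations. Concentrations descend in half-log steps from near clinical Cmax, or from 10 microM if Cmax unknown.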

[1] = curve of first compound, second compound 0.0316 µM
[2] = curve of first compound, second compound 0.1 µM
[3] = curve of first compound, second compound 0.316 µM
[4] = curve of first compound, second compound 1 µM
[5] = curve of first compound, second compound 3.16 µM
[6] = curve of first compound, second compound 10 µM
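Throughout, for viability, T/C: drug exposure lasted seven days before viability readout; 100% = DMSO vehicle control wells.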

For `CC(C)CC(NC(=O)C(Cc1ccccc1)NC(=O)c1cnccn1)B(O)O` (stereo not drawn) + CN1CCN(c2cc(C(=O)Nc3cc4cc(-c5cnn(C)c5)ccc4cn3)ccn2)CC1, the IC50 [1] was 4.64 nM, the IC50 [2] was 4.8 nM and the IC50 [3] was < 0.949 nM. The IC50 [4] was < 0.949 nM, the IC50 [5] was < 0.949 nM and the IC50 [6] was < 0.949 nM. The viability, T/C (second compound 0.0316 µM, first compound 0.000949 µM) was 116%, the viability, T/C (second compound 0.0316 µM, first compound 0.003 µM) was 79.8% and the viability, T/C (second compound 0.0316 µM, first compound 0.00949 µM) was 0.91%. For the same molecule, the viability, T/C (second compound 0.0316 µM, first compound 0.03 µM) was 0.37%, the viability, T/C (second compound 0.0316 µM, first compound 0.0949 µM) was 0.28% and the viability, T/C (second compound 0.0316 µM, first compound 0.3 µM) was 0.14%. For the same molecule, the viability, T/C (second compound 0.1 µM, first compound 0.000949 µM) was 94.9%, the viability, T/C (second compound 0.1 µM, first compound 0.003 µM) was 82.8% and the viability, T/C (second compound 0.1 µM, first compound 0.00949 µM) was 2.63%. It also gave a viability, T/C (second compound 0.1 µM, first compound 0.03 µM) of 0.49%, a viability, T/C (second compound 0.1 µM, first compound 0.0949 µM) of 0.17% and a viability, T/C (second compound 0.1 µM, first compound 0.3 µM) of 0.16%. The viability, T/C (second compound 0.316 µM, first compound 0.000949 µM) was 41.5%, the viability, T/C (second compound 0.316 µM, first compound 0.003 µM) was 18.5% and the viability, T/C (second compound 0.316 µM, first compound 0.00949 µM) was 0.32%. For the same molecule, the viability, T/C (second compound 0.316 µM, first compound 0.03 µM) was 0.16%, the viability, T/C (second compound 0.316 µM, first compound 0.0949 µM) was 0.15% and the viability, T/C (second compound 0.316 µM, first compound 0.3 µM) was 0.14%. The viability, T/C (second compound 1 µM, first compound 0.000949 µM) was 0.66%, the viability, T/C (second compound 1 µM, first compound 0.003 µM) was 0.93% and the viability, T/C (second compound 1 µM, first compound 0.00949 µM) was 0.16%. The viability, T/C (second compound 1 µM, first compound 0.03 µM) was 0.1%, the viability, T/C (second compound 1 µM, first compound 0.0949 µM) was 0.17% and the viability, T/C (second compound 1 µM, first compound 0.3 µM) was 0.8%. For the same molecule, the viability, T/C (second compound 3.16 µM, first compound 0.000949 µM) was 0.08%, the viability, T/C (second compound 3.16 µM, first compound 0.003 µM) was 2.07% and the viability, T/C (second compound 3.16 µM, first compound 0.00949 µM) was 0.1%. For the same molecule, the viability, T/C (second compound 3.16 µM, first compound 0.03 µM) was 0.08%, the viability, T/C (second compound 3.16 µM, first compound 0.0949 µM) was 1.36% and the viability, T/C (second compound 3.16 µM, first compound 0.3 µM) was 1.67%. The viability, T/C (second compound 10 µM, first compound 0.000949 µM) was 0.06%, the viability, T/C (second compound 10 µM, first compound 0.003 µM) was 1.03% and the viability, T/C (second compound 10 µM, first compound 0.00949 µM) was 0.12%. For the same molecule, the viability, T/C (second compound 10 µM, first compound 0.03 µM) was 0.11%, the viability, T/C (second compound 10 µM, first compound 0.0949 µM) was 2.27% and the viability, T/C (second compound 10 µM, first compound 0.3 µM) was 1.33%.
In the case of `CC(C)CC(NC(=O)C(Cc1ccccc1)NC(=O)c1cnccn1)B(O)O` (stereo not drawn), the viability, T/C (compound 0.000949 µM) is reported as 93.5% and 99.9%, the viability, T/C (compound 0.003 µM) is reported as 73.2% and 41.8% and the viability, T/C (compound 0.00949 µM) is reported as 1.45% and 1.53%. The viability, T/C (compound 0.03 µM) was 0.27% and 1.43%, the viability, T/C (compound 0.0949 µM) was 0.2% and 0.17% and the viability, T/C (compound 0.3 µM) was 1.64% and 0.18%. The IC50 (curve of compound) was 4.35 nM and 2.55 nM.
In the case of `CCCS(=O)(=O)Nc1ccc(F)c(C(=O)c2c[nH]c3ncc(-c4ccc(Cl)cc4)cc23)c1F` + CNC(=O)c1ccc(Nc2nc(OC3CCCC3)c3c(-c4ccc5nc(C)oc5c4)c[nH]c3n2)c(OC)c1, the IC50 [1] is reported as 6250 nM, the IC50 [2] is reported as 5910 nM and the IC50 [3] is reported as < 31.6 nM. The IC50 [4] was < 31.6 nM, the IC50 [5] was < 31.6 nM and the IC50 [6] was < 31.6 nM. It also gave a viability, T/C (second compound 0.0316 µM, first compound 0.0316 µM) of 117%, a viability, T/C (second compound 0.0316 µM, first compound 0.1 µM) of 104% and a viability, T/C (second compound 0.0316 µM, first compound 0.316 µM) of 111%. The viability, T/C (second compound 0.0316 µM, first compound 1 µM) was 89.9%, the viability, T/C (second compound 0.0316 µM, first compound 3.16 µM) was 98.7% and the viability, T/C (second compound 0.0316 µM, first compound 10 µM) was 18.2%. The viability, T/C (second compound 0.1 µM, first compound 0.0316 µM) was 75.2%, the viability, T/C (second compound 0.1 µM, first compound 0.1 µM) was 83.9% and the viability, T/C (second compound 0.1 µM, first compound 0.316 µM) was 94.8%. It also gave a viability, T/C (second compound 0.1 µM, first compound 1 µM) of 94.5%, a viability, T/C (second compound 0.1 µM, first compound 3.16 µM) of 105% and a viability, T/C (second compound 0.1 µM, first compound 10 µM) of 15.8%. For the same molecule, the viability, T/C (second compound 0.316 µM, first compound 0.0316 µM) was 27.9%, the viability, T/C (second compound 0.316 µM, first compound 0.1 µM) was 24.1% and the viability, T/C (second compound 0.316 µM, first compound 0.316 µM) was 33.6%. It also gave a viability, T/C (second compound 0.316 µM, first compound 1 µM) of 31.2%, a viability, T/C (second compound 0.316 µM, first compound 3.16 µM) of 27.6% and a viability, T/C (second compound 0.316 µM, first compound 10 µM) of 7.72%. The viability, T/C (second compound 1 µM, first compound 0.0316 µM) was 19.7%, the viability, T/C (second compound 1 µM, first compound 0.1 µM) was 20.6% and the viability, T/C (second compound 1 µM, first compound 0.316 µM) was 23.2%. The viability, T/C (second compound 1 µM, first compound 1 µM) was 17.9%, the viability, T/C (second compound 1 µM, first compound 3.16 µM) was 21% and the viability, T/C (second compound 1 µM, first compound 10 µM) was 9.33%. It also gave a viability, T/C (second compound 3.16 µM, first compound 0.0316 µM) of 16.6%, a viability, T/C (second compound 3.16 µM, first compound 0.1 µM) of 21.2% and a viability, T/C (second compound 3.16 µM, first compound 0.316 µM) of 19.1%. The viability, T/C (second compound 3.16 µM, first compound 1 µM) was 20.2%, the viability, T/C (second compound 3.16 µM, first compound 3.16 µM) was 20.9% and the viability, T/C (second compound 3.16 µM, first compound 10 µM) was 11.3%. It also gave a viability, T/C (second compound 10 µM, first compound 0.0316 µM) of 20.6%, a viability, T/C (second compound 10 µM, first compound 0.1 µM) of 21% and a viability, T/C (second compound 10 µM, first compound 0.316 µM) of 19.1%. The viability, T/C (second compound 10 µM, first compound 1 µM) was 18.9%, the viability, T/C (second compound 10 µM, first compound 3.16 µM) was 18.7% and the viability, T/C (second compound 10 µM, first compound 10 µM) was 8.45%.
With `CC(CO)NC(=O)c1cc(-c2ccc(Cl)cc2)nn(-c2cnn(C)c2)c1=O` (stereo not drawn) the viability, T/C (compound 0.0316 µM) was 103% and 108%, the viability, T/C (compound 0.1 µM) was 96.4% and 90.6% and the viability, T/C (compound 0.316 µM) was 95.2% and 95.5%. For the same molecule, the viability, T/C (compound 1 µM) was 96.3% and 98.4%, the viability, T/C (compound 3.16 µM) was 88.3% and 117% and the viability, T/C (compound 10 µM) was 86.7% and 92.5%. For the same molecule, the IC50 (curve of compound) was > 10000 nM.
